From US20260092037A1, “CRYSTALLINE SALT FORMS OF N-((1-(2-(TERT-BUTYLAMINO)-2-OXOETHYL)PIPERIDIN-4-YL) METHYL)-3-CHLORO-5-FLUOROBENZAMIDE AND METHODS OF USE THEREOF” (priority 2023, published 2026)
Like-named read-outs stand apart in the source and are kept apart here.

What was measured:
[1] = X-ray powder diffraction (XRPD) of salt screen and scale-up products; type: physicochemical; details: salt screen
absence seizures = details: childhood absence epilepsy, cited from earlier work
[2] = at 16 weeks, as assessed by video-EEG recordings

For CC(=O)O [Acetate], the “XRPD Pattern” value ([1]; E (evaporation), EtOH) was “API A (PO)” and the “XRPD Pattern” value ([1]; Grind, ACN) was “API A”.
With O=CO [Formate] the “XRPD Pattern” value ([1]; E (evaporation), EtOH) was “API A (PO)” and the “XRPD Pattern” value ([1]; Grind, ACN) was “API A”.
For N[C@@H](CCC(=O)O)C(=O)O [Glutamate], the “XRPD Pattern” value ([1]; Grind, ACN/water (9:1)) was “API A + acid” and the “XRPD Pattern” value ([1]; SL, ACN, 50° C.) was “API A + acid”.
With O=S(=O)(O)CCO [Isethionate] the “XRPD Pattern” value ([1]; Grind, ACN) was “API A + NC”.
For CC(C)C(=O)O [Isobutyrate], the “XRPD Pattern” value ([1]; E, MeOH) was “API A” and the “XRPD Pattern” value ([1]; Grind, ACN) was “API A”.
For O=C(O)CCC(=O)C(=O)O [Ketoglutarate], the “XRPD Pattern” value ([1]; E, MeOH/ACN (1:1)) was “NC + pks” and the “XRPD Pattern” value ([1]; Grind, ACN) was “API A + NC”.
In the case of Nc1nnc(-c2cccc(Cl)c2Cl)c(N)n1 [Lamotrigine], the “patients in whom the seizures were completely controlled” value (“patients” for short) (absence seizures; at 12 months) is listed as 21% and the “patients” value (absence seizures; [2]) is listed as 29%.
For CCC1(C)CC(=O)NC1=O (stereo not shown) [ethosuximide], the “patients” value (absence seizures; at 12 months) is listed as 45% and the “patients” value (absence seizures; [2]) is listed as 53%.
In the case of Alginate, the “XRPD Pattern” value ([1]; Grind, IPA) is reported as “API A”.
In the case of Ascorbate, the “XRPD Pattern” value ([1]; E (evaporation), EtOH) is reported as “API A (PO)” and the “XRPD Pattern” value ([1]; Grind, ACN) is reported as “API A + acid”.
For Benzoate, the “XRPD Pattern” value ([1]; E (evaporation), EtOH) was “API A + NC”, the “XRPD Pattern” value ([1]; Grind, ACN) was “API A + NC” and the “XRPD Pattern” value ([1]; SL, IPE, RT) was “API A”.
For Camphorate, the “XRPD Pattern” value ([1]; E (evaporation), EtOH) was “API A (PO)” and the “XRPD Pattern” value ([1]; Grind, ACN) was “API A + acid”.
For Caprate, the “XRPD Pattern” value ([1]; E (evaporation), EtOH) was “API A (PO)” and the “XRPD Pattern” value ([1]; Grind, ACN) was “API A + pks”.
For Caprylate, the “XRPD Pattern” value ([1]; E (evaporation), EtOH) was “API A (PO)” and the “XRPD Pattern” value ([1]; Grind, ACN) was “API A”.
With Citrate the “XRPD Pattern” value ([1]; Grind, EtOAc) was “API A + acid + NC”.
In the case of Gentisate, the “XRPD Pattern” value ([1]; Grind, BuOAc) is reported as “API A + NC”.
For Gluconate, the “XRPD Pattern” value ([1]; E, MeOH/toluene (1:1), RT) was “API A”, the “XRPD Pattern” value ([1]; Grind, ACN) was “API A” and the “XRPD Pattern” value ([1]; LY, dioxane/water) was “API A + NC”.
With Glucuronate the “XRPD Pattern” value ([1]; Grind, acetone) was “API A + pks” and the “XRPD Pattern” value ([1]; LY, dioxane/water) was “API A + NC”.
For Hippurate, the “XRPD Pattern” value ([1]; E (evaporation), EtOH) was “API A + NC” and the “XRPD Pattern” value ([1]; Grind, IPA) was “API A + acid”.
In the case of Laurate, the “XRPD Pattern” value ([1]; E, MeOH) is reported as “API A + acid + pks” and the “XRPD Pattern” value ([1]; Grind, ACN) is reported as “API A + acid + pks”.
For Malate, the “XRPD Pattern” value ([1]; Grind, IPA) was “API A + NC”.
With Oleate the “XRPD Pattern” value ([1]; E, MeOH) was “API A (PO)” and the “XRPD Pattern” value ([1]; Grind, ACN) was “API A + NC”.
In the case of Palmitate, the “XRPD Pattern” value ([1]; E, MeOH) is reported as “API A + acid” and the “XRPD Pattern” value ([1]; Grind, ACN) is reported as “API A + acid”.
In the case of Propionate, the “XRPD Pattern” value ([1]; E, MeOH) is reported as “API A” and the “XRPD Pattern” value ([1]; Grind, ACN) is reported as “API A”.
In the case of Pyroglutamate, the “XRPD Pattern” value ([1]; Grind, MEK) is reported as “API A + pks”.
For Stearate, the “XRPD Pattern” value ([1]; E, MeOH) was “API A + acid” and the “XRPD Pattern” value ([1]; Grind, ACN) was “API A + acid”.
In the case of Tartrate, the “XRPD Pattern” value ([1]; Grind, IPA) is reported as “API A + acid + NC”.
